#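 Results reflect a 48-hour exposure of cells in 96-well plates to compound at five concentrations. At the GI50, growth is halved. At the TGI there is no net growth.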
# Legend:
# Assay in all cases: NCI-60 cell line screen, 48 h
# KM12 colon = system: KM12 colon
# M14 melanoma = system: M14 melanoma
# MALME-3M melanoma = system: MALME-3M melanoma
# MDA-MB-435 = system: MDA-MB-435
# NCI/ADR-RES ovarian = system: NCI/ADR-RES ovarian
# OVCAR-5 ovarian = system: OVCAR-5 ovarian
# SK-MEL-2 melanoma = system: SK-MEL-2 melanoma
# U251 CNS = system: U251 CNS
# CCRF-CEM leukemia = system: CCRF-CEM leukemia
# SNB-75 CNS = system: SNB-75 CNS
Compound,TGI (KM12 colon) [µM],TGI (M14 melanoma) [µM],TGI (MALME-3M melanoma) [µM],TGI (MDA-MB-435) [µM],TGI (NCI/ADR-RES ovarian) [µM],TGI (OVCAR-5 ovarian) [µM],TGI (SK-MEL-2 melanoma) [µM],TGI (U251 CNS) [µM],TGI (CCRF-CEM leukemia) [µM],TGI (SNB-75 CNS) [µM],GI50 (CCRF-CEM leukemia) [µM],GI50 (KM12 colon) [µM],GI50 (M14 melanoma) [µM],GI50 (MALME-3M melanoma) [µM],GI50 (OVCAR-5 ovarian) [µM],GI50 (SK-MEL-2 melanoma) [µM],GI50 (SNB-75 CNS) [µM],GI50 (U251 CNS) [µM],GI50 (MDA-MB-435) [µM],GI50 (NCI/ADR-RES ovarian) [µM]
CCCN=C1NC(C)=CSC(Nc2ccccc2)=C1C#N,> 100,> 100,> 100,> 100,> 100,> 100,> 100,> 100,,,,,,,,,,,,
Cc1ccc(C)n1-c1ccccc1C1C=Cn2c(=O)oc3c(OC(C)C)c(OC(C)C)c(O)c1c32 (configuration not stated),> 100,> 100,> 100,38.6,> 100,> 100,78.2,> 100,> 100,> 100,,,,,,,,,,
OCc1ccc2c(c1)CC1(Cc3ccccc3C1)C2,57.3,,29.4,,59.5,,,,54.4,30.2,,,,,,,,,,
CSc1nnnc2ccccc12,> 100,> 100,> 100,> 100,> 100,> 100,> 100,> 100,> 100,> 100,,,,,,,,,,
NS(=O)(=O)c1ccc(-c2ccc([As](=O)(O)O)cc2)cc1,> 100,> 100,> 100,> 100,> 100,> 100,> 100,> 100,,> 100,,,,,,,,,,
CCOc1ccc2c(c1)C(/C(C(Cl)=C(Cl)Cl)=[N+](/[O-])OC(=O)c1ccccc1)=N2,> 100,> 100,> 100,> 100,> 100,> 100,> 100,> 100,> 100,> 100,,,,,,,,,,
[N-]=[N+]=Nc1cc(=O)[nH]c2ccccc12,> 100,> 100,> 100,> 100,> 100,> 100,> 100,> 100,> 100,> 100,,,,,,,,,,
CCOC(=O)Cc1[nH]c(C(=O)c2ccccc2)cc1C(=O)c1ccccc1,> 100,> 100,> 100,66,> 100,> 10,> 100,> 100,> 10,> 100,,,,,,,,,,
CC(=O)/C=C(/C)[O-].CC(=O)/C=C(/C)[O-].CC(=O)[CH-]C(C)=O.CC(=O)[CH-]C(C)=O.[Zr+4],> 100,> 100,32.5,,,> 100,> 100,> 100,> 100,> 100,> 100,> 100,> 100,12.7,> 100,> 100,> 100,> 100,,
O=C(CC(=O)N1N=C(c2ccccc2)C(N=Nc2ccc(S(=O)(=O)CCOS(=O)(=O)O)cc2)C1=O)Nc1ccc(Cl)cc1 (configuration not stated),> 100,> 100,> 100,> 100,> 100,> 100,> 100,> 100,> 100,> 100,,,,,,,,,,
NS(=O)(=O)c1nnc(NS(=O)(=O)c2cccc3cccnc23)s1,> 100,> 100,,> 100,> 100,> 100,> 100,> 100,> 100,,,,,,,,,,,
N#Cc1sc2c(c1OC(=O)c1ccco1)c(=O)n(-c1ccccc1)c(=S)n2-c1ccccc1,> 100,73.3,58.2,84.4,82,,84.2,80.9,> 10,84.5,,,,,,,,,,
O=S(=O)(O)c1ccc(O)c(N=Nc2c(O)ccc3ccccc23)c1,> 100,> 100,,> 100,> 100,> 100,> 100,> 100,86.9,> 100,,,,,,,,,,
CSc1ccc(N2C(=O)C3c4[nH]c5ccccc5c4C4CCC(C(C)(C)C)CC4C3C2=O)cc1 (configuration not stated),> 100,> 100,42.9,,,> 100,43.1,31.5,23.5,39.2,,,,,,,,,,
CCOP(=O)(OCC)C(Nc1ccc(Cl)cc1)c1ccc(F)cc1 (configuration not stated),> 100,37.2,42.3,39.7,87.3,,35.8,41.3,93.1,84.8,,,,,,,,,,
Cc1ccc2sc3c(NCCCN)nc4ccccc4c3c(=O)c2c1,3.51,3.61,3.3,3.46,3.45,3.27,4.66,,5.61,3.56,2.32,1.9,1.91,1.74,1.71,2.18,1.64,,1.82,1.8
COC1(OC)CC(CO)(COc2cc(Cl)nc(N)n2)C1,> 100,,> 100,> 100,> 100,> 100,> 100,> 100,> 100,> 100,,,,,,,,,,
O=C(CC12C3C4C1C1C2C3C41CC(=O)NO)NO (configuration not stated),> 100,> 100,> 100,,,> 100,> 100,> 100,80.1,81,,,,,,,,,,
O=c1c(O)c(-c2ccccc2)oc2c(CP(=O)(O)O)cccc12,,> 100,> 100,> 100,,> 100,> 100,> 100,> 100,,,,,,,,,,,
CCOC(=O)c1ccc2nc3n(c2c1)C(c1c(F)cccc1F)SC3 (configuration not stated),> 100,> 100,,> 100,> 100,> 100,> 100,> 100,> 100,> 100,,,,,,,,,,
